Here are results for 2 compounds from article PMC6952396, “Structural basis for itraconazole-mediated NPC1 inhibition” (Nature Communications, 2020).

The target in assay [1] is T1, NPC1 (Cricetulus griseus, UniProt Q9JLG3).
T1 construct: CHO-7 cells in the medium are deprived of cholesterol to induce the LDL receptors biosynthesis; endogenous in cells; host or cells: CHO-7 cells
T1 sequence (Q9JLG3 23-1277): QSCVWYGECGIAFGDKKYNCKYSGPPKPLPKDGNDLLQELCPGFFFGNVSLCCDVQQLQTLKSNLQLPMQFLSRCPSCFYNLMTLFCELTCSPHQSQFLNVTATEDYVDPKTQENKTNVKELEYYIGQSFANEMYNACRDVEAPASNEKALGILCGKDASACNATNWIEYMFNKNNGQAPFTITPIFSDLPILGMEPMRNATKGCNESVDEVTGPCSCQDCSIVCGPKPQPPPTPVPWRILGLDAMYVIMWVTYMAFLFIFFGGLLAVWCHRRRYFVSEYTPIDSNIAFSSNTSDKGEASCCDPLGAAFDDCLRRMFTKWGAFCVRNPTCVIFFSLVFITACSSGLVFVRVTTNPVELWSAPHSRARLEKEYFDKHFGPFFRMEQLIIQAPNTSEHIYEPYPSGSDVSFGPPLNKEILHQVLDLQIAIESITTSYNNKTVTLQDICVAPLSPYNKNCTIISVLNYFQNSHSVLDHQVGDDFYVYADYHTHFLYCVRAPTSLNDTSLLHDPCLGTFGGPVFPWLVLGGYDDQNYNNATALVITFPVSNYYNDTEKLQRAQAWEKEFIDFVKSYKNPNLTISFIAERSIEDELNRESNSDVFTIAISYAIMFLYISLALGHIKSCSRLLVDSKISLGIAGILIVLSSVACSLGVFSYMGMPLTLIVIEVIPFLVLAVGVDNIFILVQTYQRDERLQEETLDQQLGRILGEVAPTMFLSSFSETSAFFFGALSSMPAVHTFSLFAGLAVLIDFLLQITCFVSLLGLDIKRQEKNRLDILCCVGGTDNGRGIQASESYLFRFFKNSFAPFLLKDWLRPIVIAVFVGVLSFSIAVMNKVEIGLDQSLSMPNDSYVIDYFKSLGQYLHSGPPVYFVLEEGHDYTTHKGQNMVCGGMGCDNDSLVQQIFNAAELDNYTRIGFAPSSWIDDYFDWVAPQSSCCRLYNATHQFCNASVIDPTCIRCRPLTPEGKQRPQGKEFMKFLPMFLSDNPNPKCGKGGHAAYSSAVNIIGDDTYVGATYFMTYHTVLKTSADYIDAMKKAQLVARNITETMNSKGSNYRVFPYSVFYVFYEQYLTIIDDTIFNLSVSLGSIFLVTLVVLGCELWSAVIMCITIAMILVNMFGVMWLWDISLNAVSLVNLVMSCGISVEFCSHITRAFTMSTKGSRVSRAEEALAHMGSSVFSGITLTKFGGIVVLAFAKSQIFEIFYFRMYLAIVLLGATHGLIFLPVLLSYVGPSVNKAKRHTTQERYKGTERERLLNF
To be noted: cultured cells; cited from earlier work.

Assay [2] has as its system NPC1-mediated cholesterol export. To be noted: cited from earlier work.
Assay [3] concerns the target T1, NPC1. Kind of assay: Cholesterol re-esterification (ACAT) assay measuring NPC1-mediated export of cholesterol from lysosomes in CHO-7 cells. Type of assay: cell-based. To be noted: for cholesteryl [14C] oleate formed, Repeat 1 / cholesteryl [14C] oleate formed, Repeat 2: Fig. 2 source data; for cholesteryl [14C] oleate formed, Repeat 3 / cholesteryl [14C] oleate formed, Repeat 4: Supplementary Fig. 3 source data. An excerpt: Itraconazole has three chiral centers (Supplementary Fig. 2a). The pharmaceutical form contains four cis-stereoisomers in a 1:1:1:1 molar ratio (Supplementary Fig. 2a–d). To determine the activity of the cis-stereoisomers, the individual isomers were isolated and identified based on their optical rotation in chloroform following a previous report (Supplementary Fig. 2e)[26]. Then, they were separately tested in a cholesterol re-esterification assay used to measure NPC1-mediated export of cholesterol from lysosomes. Briefly, CHO-7 cells in the medium are deprived of cholesterol to induce the LDL receptors biosynthesis. The cells are then incubated with fetal calf serum (FCS) that contains LDL. The LDL-derived cholesterol will now be transported by functional NPC1 protein from the lysosome to the endoplasmic reticulum (ER). The acyl-CoA:cholesterol actyltransferase named ACAT can now re-esterify the cholesterol in the ER. Therefore, the cells were pulse-labeled with [^14C] oleate and we can measure the synthesis of cholesteroyl [^14C] oleate to evaluate the activity of NPC1 protein. Using this assay, we tested the ability of various itraconazole to inhibit NPC1 activity.
Fig. 2 ACAT activity of itraconazole and ketoconazole in CHO-7 cells. On day 0, CHO-7 cells were set up in medium A with 5% LPDS at 2.5 × 10^5 cells/well in 6-well dish. On day 2, cells were switched to medium A with 5% LPDS containing 50 µM sodium compactin and 50 µM sodium mevalonate. On day 3 the cells received fresh medium B containing compactin and mevalonate with various concentration compounds in the presence of 10% FCS containing lipoproteins. After incubation for 4 h at 37 °C, each cell monolayer was pulse-labeled for 2 h with 0.1 mM sodium [^14C] oleate (5792 dpm/nmol). The cells were then harvested for measurement of their content of cholesteryl [^14C] oleate and [^14C] triglycerides, as described in Methods. […] Itraconazole mixture, isomer A (Supplementary Fig. 2a), isomer B (Supplementary Fig. 2b) and isomer C (Supplementary Fig. 2c) were added at final concentrations of 0.3 μM. The isomer D (Supplementary Fig. 2d), I-Br and ketoconazole were added at final concentrations of 1 μM. The biological repeats are shown as individual values. Source data are provided as a Source Data file.
On day 0, cells were set up in medium A with 5% LPDS at 2.5 × 10^5 cells/well in six-well dish. On day 2, cells were switched to medium A with 5% LPDS containing 50 µM sodium compactin and 50 µM sodium mevalonate. On day 3 the cells received fresh medium B containing compactin and mevalonate with indicated concentration triazole compounds in the presence of 10% FCS containing lipoproteins. After incubation for 4 h at 37 °C, each cell monolayer was pulse-labeled for 2 h with 0.1 mM sodium [^14C] oleate (5792 dpm/nmol). The cells were then harvested for measurement of their content of cholesteryl [^14C] oleate and [^14C] triglycerides.
The rate of incorporation of [^14C] oleate into cholesteryl [^14C] oleate and [^14C] triglycerides by monolayers of NPC1^−/− cells and CHO-7 cells was measured as described previously. In brief, cells were switched to medium containing LPDS supplemented with compactin and mevolonate at 16 h before the experiments. On the day of the experiment, cells were incubated for 4 h with fresh medium containing FCS as a source of cholesterol-containing lipoproteins. Cells were then pulse –labeled for 2 h with 0.1 mM sodium [^14C] oleate. Cells were then washed, and the lipids were extracted in hexane:isopropanol (3:2, vol:vol), separated on a silica gel G thin-layer chromatogram (developed in heptane:ethylether:acetic acid, 90:30:1), and quantified by scintillation counting with the use of an internal standard for recovery.

For `CCN(CC)CCO[C@H]1CC[C@@]2(C)C(=CC[C@@H]3[C@@H]2CC[C@]2(C)C(=O)CC[C@@H]32)C1` [U18666A], the “inhibition of P-X cross-linking to NPC1” value in assay [1] is recorded as “inhibited”. Also, the “inhibition of cholesterol export from lysosomes” value in assay [2] was “inhibit cholesterol export from lysosomes”.

In the case of `CCC(C)n1ncn(-c2ccc(N3CCN(c4ccc(OCC5COC(Cn6cncn6)(c6ccc(Cl)cc6Cl)O5)cc4)CC3)cc2)c1=O` (centres unmarked) [Itra-A], the “cholesteryl [14C] oleate formed, Repeat 1” value in assay [3] (0.01 uM compound) is 3.345 nanomoles formed per hour per milligram cell protein; in assay [3] (0.03 uM compound), 2.117 nanomoles formed per hour per milligram cell protein; in assay [3] (0.06 uM compound) it was 1.347 nanomoles formed per hour per milligram cell protein; in assay [3] (0.1 uM compound), 0.6494 nanomoles formed per hour per milligram cell protein; in assay [3] (0.3 uM compound), 0.1828 nanomoles formed per hour per milligram cell protein. Further, the “cholesteryl [14C] oleate formed, Repeat 2” value is 3.639 nanomoles formed per hour per milligram cell protein in assay [3] (0.01 uM compound); 3.138 nanomoles formed per hour per milligram cell protein in assay [3] (0.03 uM compound); 1.367 nanomoles formed per hour per milligram cell protein in assay [3] (0.06 uM compound); 0.4243 nanomoles formed per hour per milligram cell protein in assay [3] (0.1 uM compound); 0.9513 nanomoles formed per hour per milligram cell protein in assay [3] (0.3 uM compound). The “cholesteryl [14C] oleate formed, Repeat 3” value in assay [3] (0.01 uM compound) is 4.944 nanomoles formed per hour per milligram cell protein; in assay [3] (0.03 uM compound), 2.06 nanomoles formed per hour per milligram cell protein; in assay [3] (0.06 uM compound), 2.476 nanomoles formed per hour per milligram cell protein; in assay [3] (0.1 uM compound), 0.5346 nanomoles formed per hour per milligram cell protein; in assay [3] (0.3 uM compound), 0.009558 nanomoles formed per hour per milligram cell protein. The “cholesteryl [14C] oleate formed, Repeat 4” value in assay [3] (0.01 uM compound) is listed as 4.771 nanomoles formed per hour per milligram cell protein; in assay [3] (0.03 uM compound), 3.899 nanomoles formed per hour per milligram cell protein; in assay [3] (0.06 uM compound), 3.208 nanomoles formed per hour per milligram cell protein; in assay [3] (0.1 uM compound), 0.7537 nanomoles formed per hour per milligram cell protein; in assay [3] (0.3 uM compound), 0.01486 nanomoles formed per hour per milligram cell protein. Further, in assay [3] (read-out: IC50 (concentration at which each compound inhibited cholesterol esterification by 50%), 10% FCS, 4 h then 2 h [14C] oleate pulse), the IC50 amounted to 20 nM.
